Assay [1] has as its target T1, HLA-A*0201 (Homo sapiens, UniProt P04439, D140Y/D185E/D98H/E176V/E277Q/G131W/G231S/I119V/I121R/I166T/I218V/L300P/L318F/N151K/N90K/P208A/P217A/Q86G/Q94H/R138H/R169H/T345S). Kind of assay: F-Score ranking (iTOPIA and CEM T2). As to conditions: overall ranking by iTOPIA and CEM T2 assays, nectin4 and reference peptides together.
Assay [2] has as its target T1, HLA-A*0201. Description: iTOPIA EDS MHC peptide binding assay. As to conditions: HLA-A*0201 monomer, relative to positive control peptide, 21° C. for 18 h. The text has this:
MHC peptide binding assay using iTOPIA EDS
Microtiter 96 well plates containing HLA class I MHC monomer loaded with the human β2-microglobulin and a “placeholder” peptide were used to evaluate peptide binding, affinity, and off-rate.
The 502 nectin4 nonapeptides were first evaluated for their ability to bind to each MHC molecule in the peptide binding assay. In this assay, the placeholder peptides were stripped from the MHC class I monomer complexes coated on plastic, which leaves the MHC class I heavy chain available as a binding partner for candidate peptides in the presence of human β2-microglobulin.
Peptide binding was performed at 21° C. for 18 h. Revelation was done using an anti HLA-ABC-FITC mAb that binds to refolded MHC complex conformation. The relative fluorescent intensity was read using a fluorimeter (Molecular Devices, SpectraMax Gemini, Sunnyvale, Calif., USA).
Peptides with a binding>30% of the positive control peptide were selected as “binder” and subsequently analyzed for affinity (ED50) and off-rate (T1/2).

The target of assay [3] is T1, HLA-A*0201. Description: biochemical. Type of assay: binding.
Assay [4] addresses T2, HLA A*0201 on CEM.T2 cell line (Homo sapiens, UniProt P04439, D140Y/D185E/D98H/E176V/E277Q/G131W/G231S/I119V/I121R/I166T/I218V/L300P/L318F/N151K/N90K/P208A/P217A/Q86G/Q94H/R138H/R169H/T345S).
T2 construct: This cell line expresses HLA A*0201 but is deficient for TAP transporter; endogenous in cells; host or cells: CEM.T2 (T2) cell line
Kind of assay: Cellular binding assay, HLA stabilization on CEM.T2 cells. It is filed as cell-based. On the procedure:
The CEM.T2 cell line (T2) is defective in the processing of proteins for presentation by MHC class 1 molecules. This cell line expresses HLA A*0201 but is deficient for TAP transporter. T2 is classically used to assess the Peptide/HLA-A*0201 Complex Stability[H. W. Nijman et al., 1993]
For HLA-A2*0201 stabilization, T2 cells (2×10^5/well) were incubated in serum-free RPMI (Gibco®-France) with 100 μM of selected peptide, at 37° C. for 4 h. Cells were washed two times with PBS supplemented with 1% BSA and stained with fluorescein isothiocyanate-conjugated anti HLA-A2 (Clone BB7.2) (BD Bioscience Pharmingen-France-) at 4° C. for 45 min. After 3 washes, cells were fixed in PBS supplemented with 2% paraformaldehyde and analyzed by FACS (FACScan, BD Bioscience). The percentage of peptide binding was calculated as follows: % Binding={(MFI peptide sample−MFI Neg control)/(MFI Pos control−MFI Neg control)}×100
Negative control was done without peptide.

The target in assay [5] is T1, HLA-A*0201. Kind of assay: iScore calculation (iTOPIA system software). As to conditions: multiparametric score of binding, off-rate and affinity.
The target of assay [6] is T2, HLA A*0201 on CEM.T2 cell line. Description: Cellular dissociation assay on CEM.T2 cells. It is filed as cell-based. The conditions noted are these: after Brefeldin A 1 h and 3 h in serum-free RPMI at 37° C. (4 h). On the procedure:
Cellular Dissociation Assay
After HLA-A2*0201 stabilization with peptides at 37° C. for 4 h, T2 cells were incubated for 1 h, in serum-free RPMI containing Brefeldin A (10 μg/ml), an inhibitor of the transport of secretory and lysosomal proteins [G. J. Strous et al., 1993]. After 3 washes, T2 cells were incubated for 3 h in serum-free RPMI at 37° C. Binding was then measured by FACS and after 4 h incubation. Percentage of Residual Binding (% RB) was calculated as follows: […]

Assay [7] relates to MDA-MB-231 breast carcinoma cell line. Description: CTL cytotoxicity, 4 h 51Cr-release assay. It is filed as cell-based, human. The conditions noted are these: FIG. 4D.
The target of the next assay is HLA-B*1501 (Homo sapiens, UniProt P01889, A329T/A93T/A95T/C349S/D201E/D98Y/E187L/E204Q/E69M/E70A/K202T/N87E/Q94N/R155S/R180W/S121R/S35A/S48A/V306I/V36M/Y140S/Y91S). Description: iTOPIA EDS and […] analyses (FIG. 5B). Type of assay: binding. The conditions noted are these: iTOPIA EDS and SYFPEITHI
On the procedure: (§1) A library of 502 nonapeptides which span the entire 510 amino acid sequence of human nectin4, was synthesized (JPT Peptide Technologies GmbH, Berlin Germany). A series of 9 peptides described in the literature was selected and used as reference (Table 1). Peptides (purity >80%) were dissolved in DMSO at a concentration of 10 mM and stored at −20° C. Specific control peptides for each allele were supplied by the manufacturer of the iTOPIA Epitope Discovery System (EDS) (Beckman Coulter Inc., San Diego, Calif., USA). The 502 peptides were tested for binding to eight alleles (HLA-A*0101; HLA-A*0201; HLA-A*0301; HLA-A*1101; HLA-A*2402; […]; HLA-B*0801; HLA-B*1501) with the iTOPIA EDS.

The target in assay [8] is T1, HLA-A*0201. Description: iTOPIA EDS and […] analyses (FIG. 5B). It is filed as binding. The conditions noted are these: iTOPIA EDS and SYFPEITHI
On the procedure:
as §1

Another assay concerns the target HLA-A*2402 (Homo sapiens, UniProt P04439, D101N/D140Y/D185E/E176V/E190D/F33S/G103R/G107R/I119L/I121M/I306V/K335N/L105A/L180Q/L300P/N151K/N90K/Q86E/Q94H/R106L/R138H/R89G/T104I/T345S/V100E/W191G/Y123F). Kind of assay: iTOPIA EDS and […] analyses (FIG. 5B). The conditions noted are these: iTOPIA EDS and SYFPEITHI
Type of assay: binding. On the procedure: as §1

Read-outs that look alike come from different tables or passages of the source. Residues, ends and D or L forms follow the SMILES beside them.

With `CC(C)C[C@H](NC(=O)[C@@H](N)CC(C)C)C(=O)N[C@@H](C)C(=O)N[C@@H](CO)C(=O)N[C@@H](Cc1ccccc1)C(=O)N[C@H](C(=O)NCC(=O)N[C@@H](CCCNC(=N)N)C(=O)N[C@@H](CS)C(=O)O)[C@@H](C)O` [Peptide 21] (H-LLASFTGRC-OH; N-terminus and C-terminus assumed), at HLA-A*0201 [1], the “RANK F-Score” value stood at 11. Moreover, the “% Binding” value at HLA-A*0201 [2] is 91%. In addition, the EC50 was approximately 100 nM at HLA-A*0201 [3] (FIG. 2A, peptide concentration 10^−4 to 10^−9 M, read-out: estimated dose to reach 50% maximal binding (ED50)) and 600 nM on HLA-A*0201 [3] (peptide concentration giving 50% of optimal binding, 10^−4 to 10^−9 M, 21° C. for 18 h, read-out: Affinity (ED50)). Further, the “CEM.T2 % Binding” value in assay [4] (100 μM peptide, 37° C. for 4 h, FACS anti HLA-A2, relative to HBV positive control peptide) was found to be 44%. Also, the iScore on HLA-A*0201 [5] is reported as 0.727. Moreover, in [6], the “CEM.T2 % Residual Binding” value is 86%.

Consider `CC(C)C[C@H](NC(=O)[C@H](CO)NC(=O)[C@@H]1CCCN1C(=O)[C@H](CC(C)C)NC(=O)[C@@H]1CCCN1C(=O)[C@@H]1CCCN1C(=O)[C@@H](NC(=O)[C@H](CC(C)C)NC(=O)[C@@H](N)C(C)C)C(C)C)C(=O)O` [Peptide 145] (H-VLVPPLPSL-OH; N-terminus and C-terminus assumed), for which, on HLA-A*0201 [2], the “% Binding” value is 67%. Besides, the EC50 at HLA-A*0201 [3] (Affinity (ED50)) was 500 nM; at HLA-A*0201 [3] (estimated dose to reach 50% maximal binding (ED50)), approximately 100 nM. In addition, in assay [7] (CTL isolated with HLA-A2/peptide tetramer, target not peptide loaded), the “lysis by peptide-specific CTL of MDA-MB-231 cell line expressing nectin4” value is on record as “able to kill the MDA-MB-231 cell line expressing nectin4”. For the same molecule, the “lysis by peptide-specific CTL of wild-type MDA-MB-231 cells” value in assay [7] (nectin4 negative HLA-A*0201 target) was “not the wild-type MDA-MB-231 cells”. Besides, in [4] (flow cytometry, FIG. 3A and 3B), the “HLA-A*0201 class I level on T2 cells” value was “increase the HLA-A*0201 class I level on T2 cells”. The iScore on HLA-A*0201 [5] is given as 0.783. Further, at HLA-B*1501, the “binder class for HLA-B*1501” value is recorded as “strong binder”. Further, the “binder class for HLA-A*0201” value at HLA-A*0201 [8] is recorded as “strong binder”. At HLA-A*2402, the “binder class for HLA-A*2402” value is reported as “strong binder”.

The values above are taken from patent US9266922B2, “Antigen peptide and uses thereof” (priority 2011, dated 2016).
